Experimental data from patent US4632940A, “N-substituted 1-(4'-alkylsulfonylphenyl)-2-amino-1,3-propanediols, pharmaceutical compositions containing them, having local anesthetic activity” (Zambon S.p.A., priority 1983, dated 1986).
Where a name gives a salt, the structure may show the parent alone.

What was measured:
Type in all cases: in vivo
[1] = system: cutaneous reflex after stimulation (guinea-pig back); assay: Local anesthetic activity, intradermal infiltration in the back of guinea-pig (Bulbring and Wayda); conditions: drug concentration inhibiting 50% of the occurence of the cutaneous reflex, 95% c.l. in parentheses
mouse = assay: in vivo; conditions: for LD50: mouse, i.v., administered as hydrochloride, observed for 24 hrs, 1440 min; for Therapeutic Index LD50/ED50: ratio of LD50 (mouse, i.v.) to ED50 (guinea pig local infiltration)
Description: (§1) Toxicity study in mouse has been performed by intravenous administration.

in vivo = conditions: in vivo, iv
Description: as §1

Row | SMILES | LOCAL ANESTHETIC ACTIVITY ED50 (c.l. 95%) [1] | LD50 (mouse) [mmols/kg/iv] | Therapeutic Index LD50/ED50 (mouse) | further results
1 | CC(COc1ccccc1)N[C@@H](CO)[C@@H](O)c1ccc(S(C)(=O)=O)cc1 (relative stereo) [Z. 1403, (1S,2S)-1-(4-methylsulfonylphenyl)-2-(1-methyl-2-phenoxyethylamino)-1,3-propanediol] | 0.049 mM | 0.80 | 16 | –
2 | CCN(CC)CCOC(=O)c1ccc(N)cc1 [Procaine, reference compound] | 2.3 (1.7-3.1) mM | – | – | –
3 | CS(=O)(=O)c1ccc([C@@H](O)[C@@H](CO)NCCC(c2ccccc2)c2ccccc2)cc1 [Z. 1395, (1R,2R)-1-(4-methylsulfonylphenyl)-2-(3,3-diphenylpropylamino)-1,3-propanediol maleate acid] | 0.73 (0.57-0.94) mM | – | – | –
4 | CC(COc1ccccc1)N[C@@H](CO)[C@@H](O)c1ccc(S(C)(=O)=O)cc1 (relative stereo) [Z. 1402, (1S,2S)-1-(4-methylsulfonylphenyl)-2-(1-methyl-2-phenoxyethylamino)-1,3-propanediol] | 0.075 (0.05-0.1) mM | 0.30 | 4 | –
5 | CS(=O)(=O)c1ccc([C@H](O)[C@H](CO)NCCC(c2ccccc2)c2ccccc2)cc1 [Z. 1396] | 0.36 (0.21-0.60) mM | – | – | selectivity ratio (in vivo; ratio of LD50 (mouse, i.v.) to ED50 (guinea pig local infiltration), read-out: Therapeutic Index LD50/ED50): 0.5; LD50 at 24 h (in vivo; mouse, administered as hydrochloride, observed for 24 hrs): 160 µmol/kg
6 | CCN(CC)CC(=O)Nc1c(C)cccc1C [Lidocaine, reference compound] | – | – | – | LOCAL […] ED50 (c.l. 95%) [1]: 0.49 (0.34-0.71) mM
